According to patent US5358951A, “Angiotensin II receptor blocking 2, 3, 6 substituted quinazolinones” (American Cyanamid Company, priority 1993, dated 1994):

Test system: vasopressor response of angiotensin II
Assay: AII Challenge: antagonism of angiotensin II vasopressor response
Assay type: in vivo
Conditions: for inhibition in vivo at 3 mg/kg / inhibition in vivo at 5 mg/kg: Rattus norvegicus; for inhibition in vivo at 3 mg/kg: iv; for inhibition in vivo at 5 mg/kg: po
Method in brief: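 Percent antagonism is based on the systolic blood pressure rise (mmHg) to i.v. angiotensin II at 0.05 and 0.1 ug/kg. Each rat's own predose response was taken as 100%. Challenges were repeated from 30 to 300 min after i.v., i.p. or oral compound in cannulated conscious male SHR, 16-20 weeks old.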

SMILES: CCCCc1nc2ccc(C3(C)CC4c5ccccc5CCN4O3)cc2c(=O)n1Cc1ccc(-c2ccccc2-c2nnn[nH]2)cc1 (stereo not drawn) [Example 64, Cis and Trans-2-Butyl-6-(1,5,6,10b-tetrahydro-2-methyl-2H-isoxazolo[3,2-a]isoquinolin-2-yl)-3-[[2'-(1H-tetrazol-5-yl][1,1'-biphenyl]-4-yl]methyl]-4(3H)-quinazolinone]
- Response Average Change (3 mg/kg I.V., AII 0.05 mcg/kg IV, 30 min post dose): 2.5 mmHg
- Response Average Change (3 mg/kg I.V., AII 0.05 mcg/kg IV, 60 min post dose): 2.5 mmHg
- Response Average Change (3 mg/kg I.V., AII 0.05 mcg/kg IV, 90 min post dose): 7.5 mmHg
- Response Average Change (3 mg/kg I.V., AII 0.05 mcg/kg IV, 180 min post dose): 7.5 mmHg
- Response Average Change (3 mg/kg I.V., AII 0.05 mcg/kg IV, 240 min post dose): 18 mmHg
- Response Average Change (3 mg/kg I.V., AII 0.05 mcg/kg IV, 300 min post dose): 7.5 mmHg
- Response Average Change (3 mg/kg I.V., AII 0.1 mcg/kg IV, 30 min post dose): 5 mmHg
- Response Average Change (3 mg/kg I.V., AII 0.1 mcg/kg IV, 60 min post dose): 5 mmHg
- Response Average Change (3 mg/kg I.V., AII 0.1 mcg/kg IV, 90 min post dose): 7.5 mmHg
- Response Average Change (3 mg/kg I.V., AII 0.1 mcg/kg IV, 120 min post dose): 10 mmHg
- Response Average Change (3 mg/kg I.V., AII 0.1 mcg/kg IV, 180 min post dose): 11 mmHg
- Response Average Change (3 mg/kg I.V., AII 0.1 mcg/kg IV, 240 min post dose): 12.5 mmHg
- Response Average Change (3 mg/kg I.V., AII 0.1 mcg/kg IV, 300 min post dose): 18.5 mmHg
- Response Average Change (3 mg/kg I.V., AII 0.5 mcg/kg IV, 120 min post dose): 5 mmHg
- Response Average Change (5 mg/kg P.O., AII 0.05 mcg/kg IV, 30 min post dose): 15 mmHg
- Response Average Change (5 mg/kg P.O., AII 0.05 mcg/kg IV, 60 min post dose): 18.5 mmHg
- Response Average Change (5 mg/kg P.O., AII 0.05 mcg/kg IV, 120 min post dose): 20 mmHg
- Response Average Change (5 mg/kg P.O., AII 0.05 mcg/kg IV, 180 min post dose): 17.5 mmHg
- Response Average Change (5 mg/kg P.O., AII 0.1 mcg/kg IV, 30 min post dose): 27.5 mmHg
- Response Average Change (5 mg/kg P.O., AII 0.1 mcg/kg IV, 60 min post dose): 23.5 mmHg
- Response Average Change (5 mg/kg P.O., AII 0.1 mcg/kg IV, 90 min post dose): 22 mmHg
- Response Average Change (5 mg/kg P.O., AII 0.1 mcg/kg IV, 120 min post dose): 20 mmHg
- Response Average Change (5 mg/kg P.O., AII 0.1 mcg/kg IV, 180 min post dose): 24 mmHg
- Response Average Change (5 mg/kg P.O., AII 0.5 mcg/kg IV, 90 min post dose): 20 mmHg
- inhibition in vivo at 3 mg/kg (0.5 h, 3 mg/kg I.V., AII 0.05 mcg/kg IV, 30 min post dose): 93%
- inhibition in vivo at 3 mg/kg (0.5 h, 3 mg/kg I.V., AII 0.1 mcg/kg IV, 30 min post dose): 91%
- inhibition in vivo at 3 mg/kg (1 h, 3 mg/kg I.V., AII 0.05 mcg/kg IV, 60 min post dose): 93%
- inhibition in vivo at 3 mg/kg (1 h, 3 mg/kg I.V., AII 0.1 mcg/kg IV, 60 min post dose): 91%
- inhibition in vivo at 3 mg/kg (2 h, 3 mg/kg I.V., AII 0.1 mcg/kg IV, 120 min post dose): 81%
- inhibition in vivo at 3 mg/kg (2 h, 3 mg/kg I.V., AII 0.5 mcg/kg IV, 120 min post dose): 86%
- inhibition in vivo at 3 mg/kg (3 h, 3 mg/kg I.V., AII 0.05 mcg/kg IV, 180 min post dose): 79%
- inhibition in vivo at 3 mg/kg (3 h, 3 mg/kg I.V., AII 0.1 mcg/kg IV, 180 min post dose): 80%
- inhibition in vivo at 3 mg/kg (4 h, 3 mg/kg I.V., AII 0.05 mcg/kg IV, 240 min post dose): 51%
- inhibition in vivo at 3 mg/kg (4 h, 3 mg/kg I.V., AII 0.1 mcg/kg IV, 240 min post dose): 77%
- inhibition in vivo at 3 mg/kg (5 h, 3 mg/kg I.V., AII 0.05 mcg/kg IV, 300 min post dose): 79%
- inhibition in vivo at 3 mg/kg (5 h, 3 mg/kg I.V., AII 0.1 mcg/kg IV, 300 min post dose): 66%
- inhibition in vivo at 3 mg/kg ([…], 3 mg/kg I.V., AII 0.05 mcg/kg IV, 90 min post dose): 79%
- inhibition in vivo at 3 mg/kg ([…], 3 mg/kg I.V., AII 0.1 mcg/kg IV, 90 min post dose): 86%
- inhibition in vivo at 5 mg/kg (0.5 h, 5 mg/kg P.O., AII 0.05 mcg/kg IV, 30 min post dose): 54%
- inhibition in vivo at 5 mg/kg (0.5 h, 5 mg/kg P.O., AII 0.1 mcg/kg IV, 30 min post dose): 25%
- inhibition in vivo at 5 mg/kg (1 h, 5 mg/kg P.O., AII 0.05 mcg/kg IV, 60 min post dose): 43%
- inhibition in vivo at 5 mg/kg (1 h, 5 mg/kg P.O., AII 0.1 mcg/kg IV, 60 min post dose): 36%
- inhibition in vivo at 5 mg/kg (2 h, 5 mg/kg P.O., AII 0.05 mcg/kg IV, 120 min post dose): 38%
- inhibition in vivo at 5 mg/kg (2 h, 5 mg/kg P.O., AII 0.1 mcg/kg IV, 120 min post dose): 45%
- inhibition in vivo at 5 mg/kg (3 h, 5 mg/kg P.O., AII 0.05 mcg/kg IV, 180 min post dose): 46%
- inhibition in vivo at 5 mg/kg (3 h, 5 mg/kg P.O., AII 0.1 mcg/kg IV, 180 min post dose): 34%
- inhibition in vivo at 5 mg/kg ([…], 5 mg/kg P.O., AII 0.1 mcg/kg IV, 90 min post dose): 40%
- inhibition in vivo at 5 mg/kg ([…], 5 mg/kg P.O., AII 0.5 mcg/kg IV, 90 min post dose): 38%
